Our source for the IC50 values is ChEMBL document CHEMBL1152934, “Quinazolindione derivatives as potent 5-HT3A receptor antagonists” (Bioorg Med Chem, 2009).

This assay deals with 5-hydroxytryptamine receptor 3A (Mus musculus) (UniProt P23979). As to the kind of experiment: Antagonist activity at 5HT3A receptor expressed in Xenopus oocyte.
Sequence of 5-hydroxytryptamine receptor 3A (Mus musculus) (P23979 whole entry, looked up): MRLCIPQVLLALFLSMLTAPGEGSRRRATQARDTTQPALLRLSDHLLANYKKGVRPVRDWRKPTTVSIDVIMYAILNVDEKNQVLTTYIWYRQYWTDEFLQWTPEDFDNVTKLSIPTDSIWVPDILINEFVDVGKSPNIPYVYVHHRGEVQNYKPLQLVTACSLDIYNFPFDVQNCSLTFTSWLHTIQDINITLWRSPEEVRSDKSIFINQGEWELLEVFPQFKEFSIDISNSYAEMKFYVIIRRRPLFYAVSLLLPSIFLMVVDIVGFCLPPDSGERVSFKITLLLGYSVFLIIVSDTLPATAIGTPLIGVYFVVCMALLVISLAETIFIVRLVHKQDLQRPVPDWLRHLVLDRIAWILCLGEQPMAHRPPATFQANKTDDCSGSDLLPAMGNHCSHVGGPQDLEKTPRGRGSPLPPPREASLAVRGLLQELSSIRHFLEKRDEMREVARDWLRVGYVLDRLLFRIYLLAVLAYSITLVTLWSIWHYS

In general, IC50 refers to the concentration needed to halve the response being measured. Compound `CC1CCCCN1CCCNC(=O)c1ccc2c(=O)n(C3CCCCC3)c(=O)[nH]c2c1` (configuration not stated) had an IC50 of 5.9 µM.
For the compound `O=C(NCCN1CCOCC1)c1ccc2c(=O)n(Cc3ccc(Cl)cc3)c(=O)[nH]c2c1`, the concentration for half-maximal inhibition (IC50) worked out at 15.8 µM.
The same measure for `O=C(NCCN1CCOCC1)c1ccc2c(=O)n(Cc3ccc(F)cc3)c(=O)[nH]c2c1`: 19.8 µM; for `O=C(NCCN1CCOCC1)c1ccc2c(=O)n(-c3ccc(F)cc3)c(=O)[nH]c2c1`: 57 µM; for `O=C(NCCN1CCCCC1)c1ccc2c(=O)n(Cc3ccccc3Cl)c(=O)[nH]c2c1`: 2.1 µM.
As to `CCC1CCCCN1CCNC(=O)c1ccc2c(=O)n(Cc3ccc(Cl)cc3)c(=O)[nH]c2c1` (configuration not stated), the IC50 amounted to 13.6 µM.
`CC1CCCCN1CCCNC(=O)c1ccc2c(=O)n(Cc3ccc(Cl)cc3)c(=O)[nH]c2c1` (configuration not stated) showed an IC50 of 11.6 µM.
